pEC50, pIC50: −log10 of the molar value. Where two headings read alike, the source gives them in different places.
Legend:
HCV replicon = HCV replicon FRET assay; format: cell-based; conditions: Hepatitis C virus
Source text: FRET Assay Preparation. To perform the HCV FRET screening assay, 96-well cell culture plates were used. The FRET peptide (Anaspec, Inc.) (Taliani et al., Anal. Biochem. 1996, 240, 60-67) contains a fluorescence donor, EDANS, near one end of the peptide and an acceptor, DABCYL, near the other end. The fluorescence of the peptide is quenched by […] resonance energy transfer (RET) between the donor and the acceptor, but as the NS3 protease cleaves the peptide the products are released from RET quenching and the fluorescence of the donor becomes apparent. The assay reagent was made as follows: 5× cell Luciferase cell culture lysis reagent from Promega (#E153A) diluted to 1× with dH2O, NaCl added to 150 mM final, the FRET peptide diluted to 20 uM final from a 2 mM stock.
To prepare plates, HCV replicon cells, with or without a Renilla luciferase reporter gene, were trypsinized and placed into each well of a 96-well plate with titrated test compounds added in columns 3 through 12; columns 1 and 2 contained a control compound (HCV protease inhibitor), and the bottom row contained cells without compound. The plates were then placed in a CO2 incubator at 37° C.
Assays. Subsequent to addition of the test compounds described above (FRET Assay Preparation), at various times the plate was removed and Alamar blue solution (Trek Diagnostics, #00-100) was added per well as a measure of cellular toxicity. After reading in a Cytoflour 4000 instrument (PE Biosystems), plates were rinsed with PBS and then used for FRET assay by the addition of 30 ul of the FRET peptide assay reagent described above (FRET Assay Preparation) per well. The plate was then placed into the Cytoflour 4000 instrument which had been set to 340 excite/490 emission, automatic mode for 20 cycles and the plate read in a kinetic mode. Typically, the signal to noise using an endpoint analysis after the reads was at least three-fold. Alternatively, after Alamar blue reading, plates were rinsed with PBS, 50 ul of DMEM (high glucose) without phenol red was added and plates were then used for luciferase assay using the Promega Dual-Glo Luciferase Assay System.
Compound analysis was determined by quantification of the relative HCV replicon inhibition and the relative cytotoxicity values. To calculate cytoxicity values, the average Alamar Blue fluorescence signals from the control wells were set as 100% non-toxic. The individual signals in each of the compound test wells were then divided by the average control signal and multiplied by 100% to determine […]. To calculate the HCV replicon inhibition values, an average background value was obtained from the two wells containing the highest amount of HCV protease inhibitor at the end of the assay period. These numbers were similar to those obtained from naïve Huh-7 cells.
The background numbers were then subtracted from the average signal obtained from the control wells and this number was used as 100% activity. The individual signals in each of the compound test wells were then divided by the averaged control values after background subtraction and multiplied by 100% to determine percent activity. EC50 values for a protease inhibitor titration were calculated as the concentration which caused a 50% reduction in FRET or luciferase activity. The two numbers generated for the compound plate, percent cytoxicity and percent activity were used to determine compounds of interest for further analysis.

HCV NS5B = molecular target: T1, HCV NS5B (Hepatitis C virus genotype 1b, UniProt Q9WMX2); assay: HCV NS5B RdRp enzyme assay (preincubation protocol); format: biochemical; conditions: Table 1, read-out: IC50*
T1 construct: The protein was expressed with an 18 amino acid C-terminal truncation to enhance the solubility; made in house; host or cells: E. coli BL21 (DE3), pET21a
How it was run: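 C-terminally truncated (Δ18) genotype 1b NS5B from E. coli, 14 nM, added to compound, then polyA template (0.2 nM), 3H-UTP (0.29 μM) and oligo-dT12 primer precaptured on streptavidin SPA beads. 4 h at 30 °C, pH 7.5, 2% DMSO; SPA readout; IC50 from seven concentrations by logistic fit.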

[1] = Table 1, FRET assay, read-out: EC50*

T1 sequence (Q9WMX2 2420-2992): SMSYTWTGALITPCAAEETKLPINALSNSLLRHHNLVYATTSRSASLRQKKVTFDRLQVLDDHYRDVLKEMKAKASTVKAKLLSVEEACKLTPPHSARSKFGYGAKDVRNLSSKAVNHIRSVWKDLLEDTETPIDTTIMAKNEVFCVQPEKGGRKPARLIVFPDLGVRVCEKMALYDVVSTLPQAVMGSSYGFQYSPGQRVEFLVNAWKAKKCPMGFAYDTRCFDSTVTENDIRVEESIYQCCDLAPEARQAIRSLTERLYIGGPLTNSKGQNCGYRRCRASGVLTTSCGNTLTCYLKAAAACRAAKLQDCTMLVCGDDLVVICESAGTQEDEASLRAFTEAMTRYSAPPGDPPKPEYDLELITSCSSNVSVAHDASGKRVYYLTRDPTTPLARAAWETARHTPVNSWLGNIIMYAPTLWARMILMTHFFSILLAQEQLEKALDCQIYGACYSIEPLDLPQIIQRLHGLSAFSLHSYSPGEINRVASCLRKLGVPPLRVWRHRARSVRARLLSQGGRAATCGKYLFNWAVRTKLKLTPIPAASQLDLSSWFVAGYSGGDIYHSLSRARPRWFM

Row | SMILES | pEC50 (HCV replicon; [1]) | pIC50 (HCV NS5B) | pEC50 (HCV replicon)
1 | CN(C)S(=O)(=O)NC(=O)c1ccc2c(C3CCCCC3)c3n(c2c1)CC(C(=O)N1CCN(C(=O)N2CCOCC2)CC1)=Cc1ccccc1-3 | 6.00 to 7.15 | 6.00 to 8.00 | –
2 | CN(C)S(=O)(=O)NC(=O)c1ccc2c(C3CCCCC3)c3n(c2c1)CC(C(=O)N1CCN(C(=O)OC(C)(C)C)CC1)=Cc1ccccc1-3 | 6.00 to 7.15 | 6.00 to 8.00 | –
3 | CN(C)S(=O)(=O)NC(=O)c1ccc2c(C3CCCCC3)c3n(c2c1)CC(C(=O)N1CCNC(=O)C1)=Cc1ccccc1-3 | 6.00 to 7.15 | 6.00 to 8.00 | –
4 | CN(C)S(=O)(=O)NC(=O)c1ccc2c(C3CCCCC3)c3n(c2c1)CC(C(=O)N1CCN(S(C)(=O)=O)CC1)=Cc1ccccc1-3 | 6.00 to 7.15 | 6.00 to 8.00 | –
5 | CC(=O)N1CCN(C(=O)C2=Cc3ccccc3-c3c(C4CCCCC4)c4ccc(C(=O)NS(=O)(=O)N(C)C)cc4n3C2)CC1 | 6.00 to 7.15 | 6.00 to 8.00 | –
6 | O=C(NC1Cc2ccccc2-c2c(C3CCCCC3)c3ccc(C(=O)O)cc3n2C1)OCc1ccccc1 (centres unmarked) | 6.00 to 7.15 | 6.00 to 8.00 | –
7 | COC(=O)c1ccc2c(C3CCCCC3)c3n(c2c1)CC(C(=O)N1CCC(N2CCOCC2)CC1)=Cc1ccccc1-3 | 5.00 to 6.00 | < 6.00 | –
8 | O=C(O)c1ccc2c(C3CCCCC3)c3n(c2c1)CC(C(=O)N1CCC(N2CCOCC2)CC1)=Cc1ccccc1-3 | 6.00 to 7.15 | 6.00 to 8.00 | –
9 | CN(C)S(=O)(=O)NC(=O)c1ccc2c(C3CCCCC3)c3n(c2c1)CC(C(=O)N1CCC(N2CCOCC2)CC1)=Cc1ccccc1-3 | 6.00 to 7.15 | 6.00 to 8.00 | –
10 | O=C(O)c1ccc2c(C3CCCCC3)c3n(c2c1)CC(C(=O)N1CCC(N2C(=O)Cc4ccccc42)CC1)=Cc1ccccc1-3 | – | 6.00 to 8.00 | 6.00 to 7.15
11 | O=C(O)c1ccc2c(C3CCCCC3)c3n(c2c1)CC(C(=O)N1CCC(C(=O)N2CCCC2)CC1)=Cc1ccccc1-3 | 6.00 to 7.15 | 6.00 to 8.00 | –
12 | O=C(O)c1ccc2c(C3CCCCC3)c3n(c2c1)CC(C(=O)N1CCC(N2CCCC2=O)CC1)=Cc1ccccc1-3 | 6.00 to 7.15 | 6.00 to 8.00 | –
13 | CN(C)S(=O)(=O)NC(=O)c1ccc2c(C3CCCCC3)c3n(c2c1)CC(C(=O)N1CCC(N2CCCC2=O)CC1)=Cc1ccccc1-3 | 6.00 to 7.15 | 6.00 to 8.00 | –
14 | CC(=O)NC1CCN(C(=O)C2=Cc3ccccc3-c3c(C4CCCCC4)c4ccc(C(=O)O)cc4n3C2)CC1 | 6.00 to 7.15 | 6.00 to 8.00 | –
15 | O=C(O)c1ccc2c(C3CCCCC3)c3n(c2c1)CC(C(=O)N1CCC(n2ccnn2)CC1)=Cc1ccccc1-3 | 6.00 to 7.15 | 6.00 to 8.00 | –
16 | COC(=O)c1ccc2c(C3CCCCC3)c3n(c2c1)CC(C(=O)N1CCC(N2CCCCC2=O)CC1)Cc1ccccc1-3 (centres unmarked) | 6.00 to 7.15 | < 6.00 | –
17 | O=C(O)c1ccc2c(C3CCCCC3)c3n(c2c1)CC(C(=O)N1CCC(N2CCCCC2=O)CC1)Cc1ccccc1-3 (centres unmarked) | 6.00 to 7.15 | 6.00 to 8.00 | –
18 | CS(=O)(=O)NC(=O)c1ccc2c(C3CCCCC3)c3n(c2c1)CC(C(=O)N1CCC(N2CCCC2=O)CC1)=Cc1ccccc1-3 | 5.00 to 6.00 | 6.00 to 8.00 | –
19 | CN(C)S(=O)(=O)NC(=O)c1ccc2c(C3CCCCC3)c3n(c2c1)CC(C(=O)N1CCC(N2CCCCC2=O)CC1)Cc1ccccc1-3 (centres unmarked) | 6.00 to 7.15 | 6.00 to 8.00 | –
20 | CN(C)S(=O)(=O)NC(=O)c1ccc2c(C3CCCCC3)c3n(c2c1)CC(C(=O)N1CCC(C(=O)N2CCCC2)CC1)=Cc1ccccc1-3 | 6.00 to 7.15 | 6.00 to 8.00 | –
21 | CN(C)S(=O)(=O)NC(=O)c1ccc2c(C3CCCCC3)c3n(c2c1)CC(C(=O)N1CCC(n2ccnn2)CC1)=Cc1ccccc1-3 | 6.00 to 7.15 | 6.00 to 8.00 | –
22 | CN(C)S(=O)(=O)NC(=O)c1ccc2c(C3CCCCC3)c3n(c2c1)CC(C(=O)N1CCC(N2CCOCC2)CC1)Cc1ccccc1-3 (centres unmarked) | 6.00 to 7.15 | 6.00 to 8.00 | –
23 | COC(=O)c1ccc2c(C3CCCCC3)c3n(c2c1)CC(C(=O)N1CCC(N2CCOCC2)CC1)=Cc1cc(OC)ccc1-3 | 5.00 to 6.00 | < 6.00 | –

Row | SMILES | pEC50 (HCV replicon; [1]) | pIC50 (HCV NS5B) | pEC50 (HCV replicon)
24 | CCN(CC)C(=O)C1CCCN(C(=O)C2=Cc3ccccc3-c3c(C4CCCCC4)c4ccc(C(=O)NS(=O)(=O)N(C)C)cc4n3C2)C1 (centres unmarked) | 6.00 to 7.15 | 6.00 to 8.00 | –
25 | O=C(O)c1ccc2c(C3CCCCC3)c3n(c2c1)CC(C(=O)N1CCC(N2CCOCC2)CC1)=Cc1ccc(Cl)cc1-3 | 5.00 to 6.00 | < 6.00 | –
26 | COc1ccc2c(c1)C=C(C(=O)N1CCC(N3CCOCC3)CC1)Cn1c-2c(C2CCCCC2)c2ccc(C(=O)O)cc21 | 6.00 to 7.15 | 6.00 to 8.00 | –
27 | CN(C)S(=O)(=O)NC(=O)c1ccc2c(C3CCCCC3)c3n(c2c1)CC(C(=O)N1CCC(N(C2CC2)S(=O)(=O)c2ccccc2)CC1)=Cc1ccccc1-3 | 6.00 to 7.15 | 6.00 to 8.00 | –
28 | CN(C)S(=O)(=O)NC(=O)c1ccc2c(C3CCCCC3)c3n(c2c1)CC(C(=O)N1CCC(N2CCC(F)(F)CC2)CC1)=Cc1ccccc1-3 | 6.00 to 7.15 | 6.00 to 8.00 | –
29 | CN(C)S(=O)(=O)NC(=O)c1ccc2c(C3CCCCC3)c3n(c2c1)CC(C(=O)N1CCC(F)(F)CC1)=Cc1ccccc1-3 | 6.00 to 7.15 | 6.00 to 8.00 | –
30 | CN(C)S(=O)(=O)NC(=O)c1ccc2c(C3CCCCC3)c3n(c2c1)CC(C(=O)N1CCCC(F)(F)C1)=Cc1ccccc1-3 | 6.00 to 7.15 | 6.00 to 8.00 | –
31 | COc1ccc2c(c1)C=C(C(=O)N1CCC(N3CCOCC3)CC1)Cn1c-2c(C2CCCCC2)c2ccc(C(=O)NS(=O)(=O)N(C)C)cc21 | 6.00 to 7.15 | 6.00 to 8.00 | –
32 | CN(C)S(=O)(=O)NC(=O)c1ccc2c(C3CCCCC3)c3n(c2c1)CC(C(=O)N1CCC(N2CCOCC2)CC1)=Cc1ccc(Cl)cc1-3 | 5.00 to 6.00 | < 6.00 | –
33 | COC(=O)c1ccc2c(C3CCCCC3)c3n(c2c1)CC(NC(=O)N1CCC(N2CCOCC2)CC1)Cc1ccccc1-3 (centres unmarked) | < 6.92 | 6.00 to 8.00 | –
34 | O=C(O)c1ccc2c(C3CCCCC3)c3n(c2c1)CC(NC(=O)N1CCC(N2CCOCC2)CC1)Cc1ccccc1-3 (centres unmarked) | 6.00 to 7.15 | 6.00 to 8.00 | –
35 | COC(=O)c1ccc2c(C3CCCCC3)c3n(c2c1)CC(C(=O)N1CCCC(F)C1)=Cc1ccccc1-3 (centres unmarked) | < 6.43 | 6.00 to 8.00 | –
36 | COC(=O)c1ccc2c(C3CCCCC3)c3n(c2c1)CC(C(=O)N1CCC(N2CCCC(F)C2)CC1)=Cc1ccccc1-3 (centres unmarked) | < 6.43 | < 6.00 | –
37 | COC(=O)c1ccc2c(C3CCCCC3)c3n(c2c1)CC(C(=O)N1CCC(N2CCCC(F)(F)C2)CC1)=Cc1ccccc1-3 | < 6.43 | < 6.00 | –
38 | COC(=O)c1ccc2c(C3CCCCC3)c3n(c2c1)CC(C(=O)N1CC[C@H](F)C1)=Cc1ccccc1-3 | < 6.43 | < 6.00 | –
39 | COC(=O)c1ccc2c(C3CCCCC3)c3n(c2c1)CC(C(=O)N1CCC(N2CC[C@@H](F)C2)CC1)=Cc1ccccc1-3 | < 6.43 | < 6.00 | –
40 | COC(=O)c1ccc2c(C3CCCCC3)c3n(c2c1)CC(C(=O)N1CCC(N2CCC(F)CC2)CC1)=Cc1ccccc1-3 | < 6.43 | < 6.00 | –
41 | COC(=O)c1ccc2c(C3CCCCC3)c3n(c2c1)CC(C(=O)N1CCCC(=O)N1)=Cc1ccccc1-3 | 5.00 to 6.00 | < 6.00 | –
42 | COC(=O)c1ccc2c(C3CCCCC3)c3n(c2c1)CC(C(=O)N1CCCC(C(N)=O)C1)=Cc1ccccc1-3 (centres unmarked) | 5.00 to 6.00 | < 6.00 | –
43 | O=C(O)c1ccc2c(C3CCCCC3)c3n(c2c1)CC(C(=O)N1CCCC(F)C1)=Cc1ccccc1-3 (centres unmarked) | 5.00 to 6.00 | 6.00 to 8.00 | –
44 | O=C(O)c1ccc2c(C3CCCCC3)c3n(c2c1)CC(C(=O)N1CCC(N2CCCC(F)C2)CC1)=Cc1ccccc1-3 (centres unmarked) | 6.00 to 7.15 | 6.00 to 8.00 | –
45 | O=C(O)c1ccc2c(C3CCCCC3)c3n(c2c1)CC(C(=O)N1CCC(N2CCCC(F)(F)C2)CC1)=Cc1ccccc1-3 | 6.00 to 7.15 | 6.00 to 8.00 | –
46 | O=C(O)c1ccc2c(C3CCCCC3)c3n(c2c1)CC(C(=O)N1CC[C@@H](F)C1)=Cc1ccccc1-3 | 6.00 to 7.15 | 6.00 to 8.00 | –
